Assay results from patent US4876265A, “Process and compositions for controlling mites parasitizing on honey bees” (priority 1983, dated 1989).

How the values were obtained:
honey-bee colonies = assay: Honey-bee colonies in northeastern Mexico, bee population; assay type: in vivo; details: end of the test; P<0.05
Procedure: (§1) Three groups of honey-bee colonies (N=30) located in northeastern Mexico are selected on the basis of the prevalence of Acarapis woodi parasitizing their workers. Lightly (≤10%), moderately (20-60%), and heavily (90-100%) infested colonies are randomly assigned to control or treated subgroups (N=15). Controls receive 50% sucrose syrup, and treated colonies receive syrup medicated with 0.3 mg/ml 2-(2,4-dimethylphenylimino)-3-methyl-4-thiazoline-hydrochloride, small, medium, and large colonies receive 300, 600, and 1000 ml of syrup, respectively. Syrup is fed three times at weekly intervals.

Acarapis woodi [1] = assay: Package bee colonies infested with Acarapis woodi, mite survival; assay type: in vivo
Procedure: (§2) Forty-two packages of honey bees (2 lbs.~907 g) are obtained from 22 colonies infested with Acarapis woodi. Infestations range from 60 to 100%. Each package is provided with a mated queen and 550 ml of treated or untreated 50% (wt/wt) sucrose syrup. All treated colonies receive syrup containing either 0.5 mg/ml (group B) or 1.0 mg/ml (group C) of 2-(2,4-dimethylphenylimino)-3-methyl-4-thiazoline hydrochloride. The control (group A) consists of 10 packages of bees and the treatment groups B and C of 16 packages each.
(§3) After installation on frames free of nectar and pollen, package colonies are examined at weekly intervals to determine food consumption, brood production and bee mortality. Random samples of ten bees/colony are examined on days 5, 12, 19, 26, 33 and 40. On day 0 and 5 bees are examined. Dissections and live mite determinations are made according to Eischen et al. (Am. Bee J. 127: 99-101, 1987).

honey bees = assay: Package bee colonies, brood production and food consumption; assay type: in vivo, honey bee; details: 0.5 mg/ml and 1.0 mg/ml; more pronounced at the higher concentration
Procedure: as §2, §3

Acarapis woodi [2] = assay: Honey-bee colonies in northeastern Mexico, parasite load; assay type: in vivo; details: 0.3 mg/ml in syrup, three times weekly, P<0.05
Procedure: as §1

Varroa jacobsoni [3] = assay: Comparative test, lethal dosage for varroa mites; assay type: in vivo; details: for LD50 in μg active ingredient/bee: oral, 10 μl sucrose suspension
Description: Compounds (I), (A) and (B) are formulated in accordance with Example F-1.
The age distribution of the bees in the test group is identical with that in a normal hive. The bees used in the laboratory tests originate from colonies only slightly infested with nosema. All groups of bees are infected with varroatosis (Varroa jacobsoni). To test the tolerance by the bees and the acaricidal activity in the group, 40 bees from the same colony are placed with their brood in each cage. To achieve a better control, each cage is fitted with a pane of glass. A small piece of honeycomb (6×8 cm) is attached at the top of each cage to pacify the bees. During the test period, the bees are kept in a climatic chamber at 25° C. and 85% relative humidity. These conditions are chosen because they are maximally acceptable both for the mites and the bees: the parasitizing mites are least affected and the bees live sufficiently long. To test the systemic activity of the active substance, 4 bees--within a group of 40 bees--are each individually fed with 10 μl of a suspension of the active substance in a 50% aqueous solution of sucrose. The bees have not been fed for at least one hour so that feed with a higher dose can be more readily ingested. 3 to 4 doses are tested in each of 2 groups. In each test series, 2 groups are left untreated as controls.
24 and 48 hours after treatment, the activity on varroa mites is determined on the basis of mite mortality. For this purpose a tray (mesh width=2.4 mm) is fixed above the floor of each of the test cages. The mites which have dropped off the bees can thus be collected on paper which had been placed under the tray. 72 hours after treatment, the bees are sacrificed and then washed in benzine to determine the number of mites which have remained on them (method of determining the number of remaining mites according to Ritter, Apidologie, 1980, 11(2), 131-141).
Percentage mite mortality can be determined from the number of mites which have remained on the bees and the number which have dropped off. Using the Probit analysis (Cavalli-Sforza, Biometrie, G. Frischer Verlag, Stuttgart), the LD50 can be determined from the dosage-mortality curve.

Varroa jacobsoni [4] = details: Thailand, 10 colonies each, four products; manufacturers' dose rates for Varroa-mite-treatment; cited from earlier work
varroa mites [5] = assay: Wetting method in the beehive, mites killed; assay type: in vivo; details: 0.5% aqueous solution, 5 ml dropped, three times at 4-day intervals; 12 days
Procedure: (§4) Six brood-less nuclei [small, manmade colonies of bees with usually 1000 to perhaps 5000 bees; see Morse and Hooper (1985), supra, Nucleus colony, p. 279] infested with varroa mites are treated three times, at intervals of 4 days, with a 0.5% aqueous solution of 2-(2,4-dimethylphenylimino)-3-methylthiazoline. The active substance is dissolved in the form of a concentrate formulation in water. 5 ml of the active substance solution are dropped onto a number of bees present in the bee ways of a beehive. The test is terminated 4 days after the last treatment, that is after a duration of 12 days. The mites and bees which have died in the course of the test are collected on a bottom tray covered with gauze, which has been inserted under the combs before commencement of the test. At the end of the test, the bees are killed, and the mites remaining on them are washed out in benzine and counted. For the evaluation, the number of dead mites and bees collected during the test is determined, the fact being taken into consideration that for the length of time of the test a natural mortality rate of about 0.5% of bees is to be expected.

Tropilaelaps clareae = details: Thailand, 10 colonies each, four products; dose rates proposed for Varroa-mite-treatment; cited from earlier work
bees [6] = assay: Wetting method in the beehive, bees killed (tolerability); assay type: in vivo, honey bee
Procedure: as §4

varroa mites [7] = assay: Feeding method in the laboratory, varroa mite mortality; assay type: in vivo; details: 7 days
Procedure: Thirty bees infested with varroa mites are each individually fed with 10 μl of a sugar-containing solution of 2-(2,4-dimethylphenylimino)-3-methylthiazoline. […] After being fed, the bees are kept in groups each of 10 for 7 days in cages. The mites which in the course of the test have fallen off dead are collected in trays placed under the individual cages. The bees are subsequently killed and are examined for remaining mites. The counting of the mites that have fallen down and those remaining on the bees is carried out after 7 days.

bees [8] = assay: Tests under natural conditions, bee mortality rate; assay type: in vivo, honey bee; details: overall; in the range of the untreated control group; 30240 min
Description: 33 brood-less bee colonies (~20,000 bees) infested with varroa mites are divided into three groups and treated with 2-(2,4-dimethylphenylimino)-3-methylthiazoline in solutions of varying concentration, originating in one case from a 15% emulsion concentrate (EC-15) and in the other case from a 15% water-soluble powder (SP-15). In the latter case, the active ingredient I is in the form of a salt (cf. Formulation Examples).
All three groups A, B and C, each consisting of 11 colonies, receive during the time of treatment the same total amount of active ingredient.
In the following the applied amounts per bee way are given. Depending on the size of the bee colony, a beehive contains between 5 and 15 bee ways, so that the amount of active ingredient applied is correspondingly adjusted from hive to hive.
In each case 5 ml of a 4% aqueous solution or emulsion per bee way are sprayed onto a number of selected bees. The remaining bees provide for a uniform distribution of the active ingredient in the colony. The partial wetting procedure is repeated after 7 days and after 14 days (observation period 21 days). […]
The mites and bees that have died during and after the treatment are collected daily from a bottom tray. 21 days after the first application, the bee colonies are killed and the remaining number of mites is then determined (observation period 21 days).

Cc1ccc(N=c2sccn2C)c(C)c1.Cl [2-(2,4-dimethylphenylimino)-3-methyl-4-thiazoline hydrochloride]
bee population of medicated colonies versus controls (honey-bee colonies): significantly larger bee populations than controls
time at which efficacy is apparent (Acarapis woodi [1]; 0.5 mg/ml and 1.0 mg/ml in syrup): 7 days
control of mites (Acarapis woodi [1]; after 26 days): almost complete control of mites
Mite survival (Acarapis woodi [1]; groups B (0.5 mg/ml) and C (1.0 mg/ml) in syrup, after 14 days): less than 1 live mite/trachea
live mites found in the tracheae of treated package bees (Acarapis woodi [1]; groups B (0.5 mg/ml) and C (1.0 mg/ml), after 26 days): no live mites
effect on honey bee larvae (spotty brood patterns) (honey bees): detrimental to some honey bee larvae as spotty brood patterns are observed in several colonies
parasite load score (Acarapis woodi [2]; heavily infested (90-100%), control 1.13): 0.63
parasite load score (Acarapis woodi [2]; lightly infested (≤10%), control 2.25): 0.53
parasite load score (Acarapis woodi [2]; moderately infested (20-60%), control 3.43): 0.84

CCn1ccsc1=Nc1ccc(C)cc1C [Compound (A)]
LD50 in μg active ingredient/bee (Varroa jacobsoni [3]; 24 hours after application): 35 μg active ingredient/bee
LD50 in μg active ingredient/bee (Varroa jacobsoni [3]; 48 hours after application): 35 μg active ingredient/bee

Cc1cccc(C)c1N=c1sccn1C [Compound (B)]
LD50 in μg active ingredient/bee (Varroa jacobsoni [3]; 24 hours after application): 28 μg active ingredient/bee
LD50 in μg active ingredient/bee (Varroa jacobsoni [3]; 48 hours after application): 28 μg active ingredient/bee

Cc1ccc(N=c2sccn2C)c(C)c1 [Compound (I), 2-(2,4-dimethylphenylimino)-3-methylthiazoline]
comparative efficacy against Varroa jacobsoni (Varroa jacobsoni [4]): best product against both mites
Killed organisms in %: mites (varroa mites [5]): 91.8%
LD50 in μg active ingredient/bee (Varroa jacobsoni [3]; 24 hours after application): 17 μg active ingredient/bee
LD50 in μg active ingredient/bee (Varroa jacobsoni [3]; 48 hours after application): 13 μg active ingredient/bee
activity against varroa mites versus compounds (A) and (B) (Varroa jacobsoni [3]; varroacidal test): significantly better activity against varroa mites
comparative efficacy against Tropilaelaps clareae (Tropilaelaps clareae): best product against both mites
Killed organisms in %: bees (bees [6]; 0.5% aqueous solution, 5 ml dropped, three times at 4-day intervals, 12 days, natural mortality about 0.5% expected): 0.4%
mortality of the bees during the test (bees [6]; compared with expected range and untreated control group): exactly within the expected range and does not differ from the mortality of the untreated control group
Fallen mites (varroa mites [7]; 10 μl sugar solution fed per bee, 30 bees, total mites 35): 34
Mortality rate in % (mites) (varroa mites [7]; 10 μl sugar solution fed per bee): 97%
killing of parasitizing mites (varroa mites [7]; feeding method in the laboratory): killing nearly all of the parasitizing mites
mortality of the treated bees (bees [8]): about 1%
